These results are taken from patent publication US11033604B2, “Reagents and methods for treating bacterial infection” (priority 2018, dated 2021).

Non-standard residues stand in square brackets, D forms with d. No end group written: not given here.

Experiment [1] deals with E. coli UTI89 vsfGFP-9 biofilms. The experiment in a line: Immune clearance test: phagocytosis of biofilm bacteria by RAW 264.7 macrophages (flow cytometry). It is filed as cell-based. Conditions: RAW 264.7 cells, 10:1 bacteria:cell, 30 min, 37° C. The protocol: FIG. 14. The macrophages are not able to phagocytose biofilm-associated bacteria (A). Administration of AP193 breaks up the biofilms and yields a greater fraction of free-swimming bacteria that are susceptible to phagocytosis (B).
To investigate this proposition, biofilms were cultivated in the presence or absence of synthetic α-sheet peptides (shown for AP193 in FIG. 14) and then co-incubated with murine macrophages. A chromosome-based GFP derivative of E. coli UTI89, vsfGFP-9, was used to visualize the extent of phagocytosis in each case with flow cytometry. Murine monocyte/macrophage-like cells, RAW 264.7, were cultured in DMED+10% FBS at 37° C. in 75 cm^2 flasks. Biofilms were grown in 48 well plates for 48 h in YESCA broth+4% DMSO at 26° C. Planktonic cells were aspirated and biofilms rinsed and gently detached from plates using sterile PBS. The suspensions were combined in a 10:1 (bacteria:cell) ratio with RAW 264.7 cells and incubated for 30 min at 37° C. in PBS to allow uptake of bacteria by macrophages. Trypsin was added at a concentration of 0.25% and incubated for 10 min to remove any bacteria bound to the external surfaces of the RAW 264.7 cells. […] Cells were then gated according to positive GFP (phagocytosed bacteria) using bacteria-free controls on a FACS Cantoll flow cytometer, and the percentage of cells positive for GFP was recorded and analyzed.
A general note: In flow cytometry, cells or beads pass a laser one at a time.

Experiment [2] relates to E. coli UTI89 WT biofilms. The experiment in a line: Antibiotic susceptibility test with gentamicin (live/dead ratio and CFU counts). The experiment is classed as cell-based. Conditions: 150 μg/mL gentamicin, 6 h, vs peptide-free controls. As for the experimental part:
FIG. 13. Synthetic α-sheet peptides increase antibiotic susceptibility of uropathogenic E. coli biofilms, as measured by A) live/dead fluorescence ratio and (B) CFU counts. Error bars indicate standard deviation of the mean of at least three replicates.
To test this hypothesis, biofilms of E. coli UTI89 WT were grown in YESCA broth+4% DMSO in 48 well plates at 26° C. Media was removed 6 h prior to the end of the 48 h incubation period and replaced either with fresh media alone or fresh media containing 150 μg/mL gentamicin (Gm), an aminoglycoside antibiotic. After the 6 h incubation, biofilms were harvested by aspirating the planktonic cells, rinsing the biofilm once with PBS, and then resuspending the biofilm in PBS. Biofilm suspensions were homogenized with a probe sonicator and subjected to one of two processing protocols. In the first assay, the bacterial density of each biofilm suspension was normalized by absorbance at 670 nm and then bacteria were stained with Live/Dead (Syto9/propidum iodide) to obtain a fluorescent readout of viability. In the second assay, biofilm suspensions were serially diluted in sterile PBS and then plated on agar plates to obtain colony-forming unit (CFU) counts.

On to “RGEmNyFwMNEYYGWtMnCkMGR (RGE[dM]N[dY]F[dW]MNEYYGW[dT]M[dN]C[dK]MGR) [AP193, hydrophobic AP90 derivative, variant to support different chemical coupling reactions]”, for which the “Susceptibility of biofilm bacteria to phagocytosis” value in experiment [1] is reported as “more susceptible to phagocytosis”. For the same substance, the “Efficacy of gentamicin (Gm) against biofilms (live/dead ratio, CFU counts)” value in experiment [2] is reported as “improved the efficacy of Gm”.
